Results on 39 molecules are retold here after patent publication US9115101B2 (Genentech, Inc., priority 2012, dated 2015).

Structures are written as SMILES.

For one experiment, the target named is T1, RORc ligand binding domain (Homo sapiens, UniProt P51449).
T1 construct: host or cells: E. coli
T1 sequence (P51449 269-508 limits assumed): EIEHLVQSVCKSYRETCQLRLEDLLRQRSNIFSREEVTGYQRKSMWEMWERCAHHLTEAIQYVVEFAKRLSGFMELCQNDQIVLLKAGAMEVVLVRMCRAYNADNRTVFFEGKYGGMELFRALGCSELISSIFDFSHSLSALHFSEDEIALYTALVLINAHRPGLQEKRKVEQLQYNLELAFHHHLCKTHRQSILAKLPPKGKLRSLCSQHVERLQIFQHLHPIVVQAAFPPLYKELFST
The experiment in a line: In Vitro RORc Ligand Binding Assay (25-[3H]hydroxycholesterol radioligand filtration). To be noted: In Vitro RORc Ligand Binding Assay; Table 4; read-out: RORc IC50.
For orientation: IC50 means the concentration that gives 50% inhibition. Consider `CC(=O)N1CCN(c2ccc(CN3[C@@H](C)CCC(c4ccccc4C)S3(=O)=O)c(F)c2)CC1` (single isomer, unassigned) [Example 205], for which the IC50 worked out at 0.307 µM.

Take `CC(=O)N1CCCN(c2ccc(CN3[C@@H](C)CCC(c4ccccc4)S3(=O)=O)c(F)c2)CC1` (single isomer, unassigned) [Example 80]: the IC50 is 0.014 µM. On the same count and under the same terms, with `CC[C@H]1CCC(c2ccccc2)S(=O)(=O)N1Cc1ccc(NC2CCN(S(C)(=O)=O)CC2)cc1F` (single isomer, unassigned) [Example 240] the figure was 0.004 µM.

Take `CC(=O)N1CCN(c2ccc(CN3[C@H](C)CCC(c4ccccc4)S3(=O)=O)cn2)CC1` (single isomer, unassigned) [Example 49]: the IC50 stood at 5.5 µM. Still for that read-out and setting: with `C[C@H]1CCC(c2ccccc2)S(=O)(=O)N1Cc1ccc(N2CCC(n3cnnc3)CC2)cc1F` (single isomer, unassigned) [Example 150] the figure was 0.029 µM; with `C[C@H]1CCC(c2ccccc2)S(=O)(=O)N1Cc1ccc(C(=O)N[C@@H]2CCN(C(N)=O)C2)cc1` (stereo partly drawn) [Example 391, (R)-3-[4-((3S)-Methyl-1,1-dioxo-6-phenyl-[1,2]thiazinan-2-ylmethyl)-benzoylamino]-pyrrolidine-1-carboxylic acid amide], 3.43 µM; with `CS(=O)(=O)N1CCC(Oc2ccc(CN3CCCC(c4ccccc4)S3(=O)=O)c(F)c2)CC1` (single isomer, unassigned) [Example 4], 0.037 µM. Consider `C[C@H]1CCC(c2ccccc2)S(=O)(=O)N1Cc1ccc(C(=O)N2CCC3(CC2)COC3)cc1` (stereo partly drawn) [Example 362, [4-((3S)-Methyl-1,1-dioxo-6-phenyl-[1,2]thiazinan-2-ylmethyl)-phenyl]-(2-oxa-7-aza-spiro[3.5]non-7-yl)-methanone], for which the IC50 is 0.903 µM. As for `C[C@H]1CCC(c2ccccc2)S(=O)(=O)N1Cc1ccc(N2CCC(CS(C)(=O)=O)CC2)cc1F` (single isomer, unassigned) [Example 104], the IC50 was 0.054 µM. On the same count and under the same terms, with `C[C@H]1CCC(c2ccccc2)S(=O)(=O)N1Cc1ccc(N2CCC(c3cnn[nH]3)CC2)cc1F` (single isomer, unassigned) [Example 255] the figure was 0.012 µM.

Turning to `C[C@H]1CCC(c2ccccc2)S(=O)(=O)N1Cc1ccc(N2CCC(C(N)=O)CC2)cc1F` (single isomer, unassigned) [Example 221], the IC50 was 0.085 µM. On the same count and under the same terms, with `C[C@H]1CCC(c2ccccc2)S(=O)(=O)N1Cc1ccc(C(=O)N2CCn3ccnc3C2)cc1` (stereo partly drawn) [Example 296, (5,6-Dihydro-8H-imidazo[1,2-a]pyrazin-7-yl)-[4-((3S)-methyl-1,1-dioxo-6-phenyl-[1,2]thiazinan-2-ylmethyl)-phenyl]-methanone] the figure was 1.29 µM. As to `CC(=O)N1CCN(c2ccc(CN3[C@@H](C)CCCC(c4ccccc4)S3(=O)=O)c(F)c2)CC1` (single isomer, unassigned) [Example 322], the IC50 is 0.026 µM.

Regarding `C[C@H]1CCC(c2ccccc2)S(=O)(=O)N1Cc1ccc(C(=O)N2CCC(C#N)CC2)cc1` (stereo partly drawn) [Example 279, 1-[4-((3S)-Methyl-1,1-dioxo-6-phenyl-[1,2]thiazinan-2-ylmethyl)-benzoyl]-piperidine-4-carbonitrile], the IC50 turned out to be 4.28 µM.

Consider `CC(=O)N1CCN(c2ccc(CN3[C@H](C)CC(c4ccccc4)S3(=O)=O)c(F)c2)CC1` (single isomer, unassigned) [Example 66], for which the IC50 is 0.31 µM.

As to `CO[C@@H](C)C(=O)N1CCCN(c2ccc(CN3[C@@H](C)CCC(c4ccccc4)S3(=O)=O)c(F)c2)CC1` (single isomer, unassigned) [Example 90], the 50% inhibitory concentration (IC50) worked out at 0.076 µM. With `C[C@H]1CCC(c2ccccc2)S(=O)(=O)N1Cc1ccc(C(=O)N2CCN(S(=O)(=O)N(C)C)CC2)cc1` (stereo partly drawn) [Example 286, 4-[4-((3S)-Methyl-1,1-dioxo-6-phenyl-[1,2]thiazinan-2-ylmethyl)-benzoyl]-piperazine-1-sulfonic acid dimethylamide], the IC50 worked out at 7.42 µM. With `CC(=O)N1CCN(c2ccc(CN3[C@H](C)CCCC(c4ccccc4)S3(=O)=O)c(F)c2)CC1` (single isomer, unassigned) [Example 319], the concentration for half-maximal inhibition (IC50) was 0.008 µM. With `CC(=O)N1CCN(c2ccc(CN3CC4(COC4)CC(c4ccccc4)S3(=O)=O)c(F)c2)CC1` (single isomer, unassigned) [Example 266, 1-(4-(4-((7,7-dioxido-8-phenyl-2-oxa-7-thia-6-azaspiro[3.5]nonan-6-yl)methyl)-3-fluorophenyl)piper-azin-1-yl)ethanone], the IC50 is 4.33 µM. On to `CC(=O)N1CCN(c2ccc(CN3C[C@H](C)OCC(c4ccccc4)S3(=O)=O)c(F)c2)CC1` (single isomer, unassigned) [Example 28], for which the IC50 was found to be 0.104 µM. With `CC(=O)N1CCN(c2ccc(CN3[C@@H](C(C)C)CCC(c4ccccc4)S3(=O)=O)c(F)c2)CC1` (single isomer, unassigned) [Example 247], the IC50 amounted to 0.029 µM. `CC(=O)N1CCN(c2ccc(CN3CCCC(c4ccccc4)S3(=O)=O)c(F)c2)CC1` (single isomer, unassigned) [Example 2]: the IC50 was 0.157 µM. On to `COc1cccc(C2CC[C@H](C)N(Cc3ccc(N4CCN(C(C)=O)CC4)cc3F)S2(=O)=O)c1` (single isomer, unassigned) [Example 190], for which the half-maximal inhibitory concentration (IC50) amounted to 0.117 µM. Take `C[C@H]1CCC(c2ccccc2)S(=O)(=O)N1Cc1ccc(N2CCC(c3cnn[nH]3)CC2)cc1F` (single isomer, unassigned) [Example 254]: the IC50 worked out at 0.009 µM. In the case of `COCC(=O)N1CCN(c2ccc(CN3[C@@H](C)CCC(c4ccccc4)S3(=O)=O)c(F)c2)CC1` (single isomer, unassigned) [Example 74], the IC50 was 0.029 µM. As to `CC(=O)N1CCN(c2ccc(CN3[C@H](C)CCCC(c4ccccc4)S3(=O)=O)c(F)c2)CC1` (single isomer, unassigned) [Example 321], the IC50 was determined as 0.016 µM.

Regarding `COc1cc(N2CCN(C(C)=O)CC2)ccc1CN1[C@@H](C)CCC(c2ccccc2)S1(=O)=O` (single isomer, unassigned) [Example 160], the IC50 is 0.207 µM. For the molecule `C[C@H]1CCC(c2ccccc2)S(=O)(=O)N1Cc1ccc(N2CCn3nccc3C2)cc1F` (single isomer, unassigned) [Example 134], the IC50 is 0.33 µM. In the case of `C[C@H]1CCC(c2ccccc2)S(=O)(=O)N1Cc1ccc(OC2CCN(S(C)(=O)=O)CC2)nc1` (single isomer, unassigned) [Example 34], the concentration for half-maximal inhibition (IC50) was found to be 0.686 µM. Same read-out and setting: with `C[C@@H]1CC(c2ccccc2)S(=O)(=O)N(Cc2ccc(N3CCN(C(=O)CC#N)CC3)cc2F)C1` (stereo partly drawn) [Example 230, 3-{4-[3-Fluoro-4-((4R)-methyl-1,1-dioxo-6-phenyl-[1,2]thiazinan-2-ylmethyl)-phenyl]-piperazin-1-yl}-3-oxo-propionitrile] the figure was 0.093 µM.

Staying with this experiment, now noted: read-out: RORc IC50.
Consider `C[C@H]1CCC(c2ccccc2)S(=O)(=O)N1Cc1ccc(N2CCN3C(=O)CN(C)C(=O)[C@@H]3C2)cc1F` (stereo partly drawn) [Example 402, (S)-8-[3-Fluoro-4-((3S)-methyl-1,1-dioxo-6-phenyl-[1,2]thiazinan-2-ylmethyl)-phenyl]-2-methyl-hexahydro-pyrazino[1,2-a]pyrazine-1,4-dione], for which the IC50 stood at 3.54 µM. Regarding `COC(=O)C1(n2cnnc2)CCN(c2ccc(CN3[C@@H](C)CCC(c4ccccc4)S3(=O)=O)c(F)c2)CC1` (stereo partly drawn) [Example 427, 1-[3-Fluoro-4-((3S)-methyl-1,1-dioxo-6-phenyl-[1,2]thiazinan-2-ylmethyl)-phenyl]-4-[1,2,4]triazol-4-yl-piperidine-4-carboxylic acid methyl ester], the IC50 came to 0.447 µM.

On to `C[C@H]1CCC(c2ccccc2)S(=O)(=O)N1Cc1ccc(OCCN2CCOCC2)cc1` (stereo partly drawn) [Example 438, 4-{2-[4-((3S)-Methyl-1,1-dioxo-6-phenyl-[1,2]thiazinan-2-ylmethyl)-phenoxy]-ethyl}-morpholine], for which the IC50 came out at 0.665 µM. Regarding `C[C@H]1CCC(c2ccccc2)S(=O)(=O)N1Cc1ccc(N2CC3(CC(n4cnnc4)C3)C2)cc1F` (stereo partly drawn) [Example 424, 2-[3-Fluoro-4-((3S)-methyl-1,1-dioxo-6-phenyl-[1,2]thiazinan-2-ylmethyl)-phenyl]-6-[1,2,4]triazol-4-yl-2-aza-spiro[3.3]heptane], the IC50 was found to be 0.427 µM. Turning to `C[C@H]1CCC(c2ccccc2)S(=O)(=O)N1Cc1ccc(N2CCN3C(=O)OCC3C2)cc1F` (stereo partly drawn) [Example 400, 7-[3-Fluoro-4-((3S)-methyl-1,1-dioxo-6-phenyl-[1,2]thiazinan-2-ylmethyl)-phenyl]-hexahydro-oxazolo[3,4-a]pyrazin-3-one], the IC50 was 0.095 µM. In the case of `C[C@H]1CCC(c2ccccc2)S(=O)(=O)N1Cc1ccc(C(=O)NC2CCC(O)C2)cc1` (single isomer, unassigned) [Example 409], the IC50 is 1.88 µM. For the molecule `C[C@H]1CCC(c2ccccc2)S(=O)(=O)N1Cc1ccc(OCC2CCOC2)cc1` (stereo partly drawn) [Example 430, (3S)-Methyl-6-phenyl-2-[4-(tetrahydro-furan-3-ylmethoxy)-benzyl]-[1,2]thiazinane 1,1-dioxide], the IC50 was 0.559 µM. With `CNC(=O)[C@H]1CN(C(C)=O)CCN1c1ccc(CN2[C@@H](C)CCC(c3ccccc3)S2(=O)=O)c(F)c1` (stereo partly drawn) [Example 435, (R)-4-Acetyl-1-[3-fluoro-4-((3S)-methyl-1,1-dioxo-6-phenyl-[1,2]thiazinan-2-ylmethyl)-phenyl]-piperazine-2-carboxylic acid methylamide], the IC50 came to 0.244 µM. For `COC(=O)C1(n2cnnc2)CCN(c2ccc(CN3[C@@H](C)CCC(c4ccccc4)S3(=O)=O)c(F)c2)CC1` (stereo partly drawn) [Example 426, 1-[3-Fluoro-4-((3S)-methyl-1,1-dioxo-6-phenyl-[1,2]thiazinan-2-ylmethyl)-phenyl]-4-[1,2,4]triazol-4-yl-piperidine-4-carboxylic acid methyl ester], the IC50 came to 0.453 µM.
